Source: patent US11884650B2, “Substituted heterocyclic compounds” (BRISTOL-MYERS SQUIBB COMPANY, priority 2021, dated 2024)
pIC50: −log10 of the molar value.

How the values were obtained:
Caco-2 cells = settings: human, Caco-2, 2 h, 3 μM, pH 7.4
[1] = system: IFNα-induced pSTAT5 in human whole blood (CD3 positive population); assay: IFNα-Induced STAT Phosphorylation in Human Whole Blood; assay type: cell-based; settings: 1 h incubation with compound, 1000 U/mL IFNα A/D for 15 min, read-out: Human Whole blood IFNa pSTAT5 IC50
Description: IFNα-Induced STAT Phosphorylation in Human Whole Blood
After an hour long incubation with compound, human whole blood (drawn with ACD-A as anticoagulant) was stimulated with 1000 U/mL recombinant human IFNα A/D (R&D Systems 11200-2) for 15 min. The stimulation was stopped by adding Fix/Lyse buffer (BD 558049). Cells were stained with a CD3 FITC antibody (BD 555916), washed, and permeabilized on ice using Perm III buffer (BD 558050). Cells were then stained with an Alexa-Fluor 647 pSTAT5 (pY694) antibody (BD 612599) for 60 min prior to analysis on the iQue Plus. The amount of pSTAT5 expression was quantitated by median fluorescence intensity after gating on the CD3 positive population.

in vitro = settings: human, Caco-2, pH 7.4
[2] = Brain Penetration In Vivo Assay; parameters: species or system C57BL6 wild-type mice; settings: C57BL6, brain and plasma, 10 mg/kg, mouse, 10 mpk, po, read-out: Ratio of exposure in brain to plasma
Description: Brain Penetration In Vivo Assay
A pharmacokinetic study was performed using C57BL6 wild-type mice (n=3 per experiment) to determine brain and plasma exposure of compounds of the invention. The compound was administered orally in a solution of 5% ETHANOL; 90% PEG 300; 5% TPGS at 5 […] for a final concentration. of 10 mg/kg. Mice were euthanized 1 hour post-dose and plasma and brain were collected and frozen for analysis. Brain tissues were homogenized in a 1:1 volume of blank C57BL6 mouse plasma. Concentrations of the compound in plasma and brain homogenate were determined by LC-MS analysis.

pIC50 [1]	Papp A→B at 2 h, 3 μM (in vitro) [×10⁻⁶ cm/s]	efflux ratio at 2 h, 3 μM (in vitro)	Kp at 1 h [2]	Compound	Caco-2 AB (Caco-2 cells) [nm/s]
6.55	54.5	0.4		CCC(=O)c1cnc(NC(=O)C2CC2)cc1Nc1ccc(F)c(-c2cnn(C)n2)c1OC [Example 4, N-(4-((4-fluoro-2-methoxy-3-(2-methyl-2H-1,2,3-triazol-4-yl)phenyl)amino)-5-propionylpyridin-2-yl)cyclopropanecarboxamide]	
7.43	66.3	0.1	3.1	CCC(=O)c1cnc(NC(=O)C2CC2)cc1Nc1nccc(-c2cnn(C)n2)c1OC [Example 1, N-(4-((3-methoxy-4-(2-methyl-2H-1,2,3-triazol-4-yl)pyridin-2-yl)amino)-5-propionylpyridin-2-yl)cyclopropanecarboxamide]	
6.40	18	0.2		CCC(=O)c1cnc(NC(=O)C2CC2)cc1Nc1nccc(-c2cnn(C3CC3)n2)c1OC [Example 2, N-(4-((3-methoxy-4-(2-cyclopropyl-2H-1,2,3-triazol-4-yl)pyridin-2-yl)amino)-5-propionylpyridin-2-yl)cyclopropanecarboxamide]	
6.34	18.3	0.5	3	CCC(=O)c1cnc(NC(=O)C2CC2)cc1Nc1cccc(-c2cnn(C)n2)c1OC [Example 3, N-(4-((2-methoxy-3-(2-methyl-2H-1,2,3-triazol-4-yl)phenyl)amino)-5-propionylpyridin-2-yl)cyclopropanecarboxamide]	
			0.05	CCC(=O)c1cnc(NC(=O)C2CC2)cc1Nc1cccc(-c2ncn(C)n2)c1OC [B, reference compound]	
			0.14	CCC(=O)c1cnc(NC(=O)C2CC2)cc1Nc1nccc(-c2ncn(C)n2)c1OC [A, reference compound]	

Compound	pIC50 [1]	Papp A→B at 2 h, 3 μM (in vitro) [×10⁻⁶ cm/s]	efflux ratio at 2 h, 3 μM (in vitro)	Kp at 1 h [2]	Caco-2 AB (Caco-2 cells) [nm/s]
N-(4-((3-methyl-2-methoxy-3-(2-methyl-2H-1,2,3-triazol-4-yl)phenyl)amino)-5-propionylpyridin-2-yl)cyclopropanecarboxamide [Example 6]	6.11				152
N-(4-((3-fluoro-2-methoxy-3-(2-methyl-2H-1,2,3-triazol-4-yl)phenyl)amino)-5-propionylpyridin-2-yl)cyclopropanecarboxamide [Example 5]	6.15				258
